The results in this text go back to article PMC10336507 (Heliyon, 2023).

As a reminder, the pIC50 is the negative decadic logarithm of the IC50, by convention in mol/L. Low values mean a high IC50, high ones a low IC50.

The experiment deals with M. SssI MTase (Spiroplasma monobiae, UniProt P15840). Kind of experiment: coupled fluorescence turn-off DNA methylation assay. The experiment is classed as biochemical.

pIC50: −log10 of the molar value.

Chain of M. SssI MTase (P15840 whole entry): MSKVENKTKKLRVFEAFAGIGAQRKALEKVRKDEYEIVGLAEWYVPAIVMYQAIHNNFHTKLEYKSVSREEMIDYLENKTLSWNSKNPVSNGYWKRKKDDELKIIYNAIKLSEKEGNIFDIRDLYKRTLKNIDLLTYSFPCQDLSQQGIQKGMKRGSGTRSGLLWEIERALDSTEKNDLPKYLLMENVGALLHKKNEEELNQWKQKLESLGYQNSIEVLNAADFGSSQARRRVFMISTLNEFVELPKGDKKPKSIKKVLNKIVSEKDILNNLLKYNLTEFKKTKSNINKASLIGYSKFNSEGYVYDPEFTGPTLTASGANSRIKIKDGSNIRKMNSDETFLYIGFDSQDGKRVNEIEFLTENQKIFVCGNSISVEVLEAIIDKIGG

In turn, `Nc1ncn([C@@H]2O[C@H](CO)[C@@H](O)[C@H]2O)c(=O)n1` [5-Aza, 5-Azacytidine] had a negative-log IC50 (pIC50) of 5.42.
